# Assay results taken from publication PMC9322164, “Novel Neuroprotective Potential of Bunchosia armeniaca (Cav.) DC against Lipopolysaccharide Induced Alzheimer’s Disease in Mice” (Plants, 2022).
# What was measured:
# [1] = DPPH radical scavenging assay; conditions: mean ± SD, n = 6
# [2] = Ferric reducing antioxidant power (FRAP) assay; conditions: mean ± SD, n = 6
# Protocol: Natural products’ ability to reduce metals is regarded as a key marker of their antioxidant properties. Spectroscopically, the quantity of ferric (Fe^3+) complex conversion to ferrous (Fe^2+) form is detected by the color change of the solution based on the compound’s ability for reduction. The increased reduction capability of the studied sample is shown by the higher absorbance of the reaction mixture. FRAP values of B. armeniaca extract and its fractions were recorded in (Table 2) and expressed as EC50 (µg/mL).
# The FRAP technique was carried out in microplates with slight modifications as described by. Briefly, a fresh FRAP solution was prepared shortly before the reaction in a 10:1:1 v/v/v ratio, consisting of acetate buffer (300 mM, PH = 3.6), tripyridyltriazine (TPTZ, 10 mM) in HCl (40 mM), and FeCl3 (20 mM), respectively. […] The FRAP test measured the absorbance change generated by electron-donating antioxidants converting a colorless oxidized Fe^+3-TPTZ complex to a blue-colored Fe^+2 molecule in acidic conditions. Data are represented as mean ± SD.
# FRAP assay data were determined by Microsoft Excel®. […] AChE inhibition activity was performed in triplicate. […] The difference was considered significant when p < 0.05.
# [3] = ABTS cation radical decolorization assay; conditions: mean ± SD, n = 6
# [4] = design: method as in earlier work; conditions: previous research ref 5; cited from earlier work
# [5] = tested on: GFAP; assay: Brain content of GFAP (ELISA) in LPS-induced Alzheimer in mice; type: in vivo; conditions: LPS 250 µg/kg/day IP 7 days; compared to normal control
# Protocol: (§1) Firstly, mice were anesthetized using an IP injection of ketamine at a dose of 80–100 mg/kg. After they achieved a deep anesthetic state, mice were sacrificed by decapitation. Each mouse’s brain was promptly dissected and washed with phosphate-buffered saline (PBS) to eliminate extra blood. Weighed pieces were homogenized in PBS with the MPW-120 homogenizer, Med Instruments, Poland, to obtain a 20% homogenate, then they were kept overnight at −20 °C. […] The supernatant was removed immediately and assayed for brain contents of NF-κB, IL-1β, CYP2E1, and GFAP. They were determined using an ELISA kit (SunLong Biotec Co., Ltd., Hangzhou, China).
# (§2) Standards and samples were added to wells containing immobilized antibodies specific for […] NF-κB, IL-1β, CYP2E1, and GFAP and kept for 30 min of incubation at 37 °C. After washing, horseradish peroxidase-conjugated streptavidin was added to the wells, kept for 30 min of incubation at 37 °C, and then washed for a second time. The wells were filled with tetramethylbenzidine (TMB) substrate solution and kept for 15 min of incubation at 37 °C; a color was produced in proportion to the quantity of NF-κB, IL-1β, CYP2E1, and GFAP bound. A stop solution was added to the wells to terminate the color development, and color intensity was detected at 450 nm after 10 min [130].
# [6] = tested on: NF-κB; assay: Brain content of NF-κB (ELISA) in LPS-induced Alzheimer in mice; type: in vivo; conditions: LPS 250 µg/kg/day IP 7 days; compared to normal control
# Protocol: as §1, §2
# [7] = tested on: mice brain; assay: Histopathological examination of mice brain (H&E); type: in vivo; conditions: LPS model, extracts 200 mg/kg/day oral 7 days
# Protocol: Autopsy specimens were obtained from mice brains, divided into several groups and preserved in 10% formol saline for a day. Subsequently, rinsing with tap water, dehydration was achieved by alcohol serial dilutions (methyl, ethyl, and absolute ethyl alcohol). Samples were cleaned with xylene and immersed in paraffin for a day at 56 °C in a hot air oven. Paraffin beeswax tissue blocks were made using a sledge microtome and sectioned at a thickness of […].
# [8] = tested on: CYP2E1; assay: Brain content of CYP2E1 (ELISA) in LPS-induced Alzheimer in mice; type: in vivo; conditions: LPS 250 µg/kg/day IP 7 days; compared to normal control
# Protocol: as §1, §2
# [9] = tested on: IL-1β; assay: Brain content of IL-1β (ELISA) in LPS-induced Alzheimer in mice; type: in vivo; conditions: LPS 250 µg/kg/day IP 7 days; compared to normal control
# Protocol: as §1, §2
# [10] = tested on: LPS-induced Alzheimer in mice; assay: Y maze spontaneous alternation test in LPS-induced Alzheimer in mice; type: in vivo; conditions: LPS 250 µg/kg/day IP 7 days; compared to normal control
# Protocol: Fifty male Swiss mice weighing 20–35 gm were chosen for the investigation. They were held in filter-top plastic cages under hygienic conditions, with 12-h light and 12-hour dark cycles and 50% humidity at 28 °C. Unnecessary disturbance of animals was avoided. Squeezing, pressure, and abrasive maneuvers were avoided when dealing with the animals. Throughout the experiment, mice were fed a standard pellet meal, and water was allowed ad libitum. The laboratory animal experiments were conducted to comply with the recommendations of the Guide for the Care and Use of Laboratory Animals of the National Research Centre, Egypt, and the National Institutes of Health (NIH No. 85:23 revised 1985) in accordance with the guidelines provided by the CPCSEA and the World Medical Association Declaration of Helsinki on Ethical Principles for Studies Involving Experimental Animals. […]
# Y maze spontaneous alternation test was performed 24 h after the last treatment dose, according to [126]. […] One day later, the mouse was allowed eight minutes of movements while its motion was recorded. The letter of the mouse was recorded down every time it entered an arm with all of its limbs inside. […] The alternation percentage was determined using the formula below: Number of alternations/(Total arm entries −2) ∗ 100
compound,measurement,setting,value
Cc1c(C)c2c(c(C)c1O)CCC(C)(C(=O)O)O2 (centres unmarked) [Trolox],DPPH Assay IC50,[1],24.42 ± 0.87 µg/mL
same,FRAP Assay EC50,[2],96.97 ± 2.73 µg/mL
same,ABTS Assay IC50,[3],22.56 ± 0.78 µg/mL
O=C(O)c1cc(O)c(O)c(O)c1 [gallic acid],DPPH IC50,[4],3.6 µg/mL
Lipopolysaccharide [LPS],elevation of GFAP brain expression,[5],276%
same,increase of NF-κB in the brain,[6],309%
same,histopathology of cerebellum,[7],normal histological findings
same,histopathology of cerebral cortex,[7],nuclear pyknosis and neuronal degeneration with focal gliosis
same,histopathology of fascia dentata and hilus in the hippocampus,[7],nuclear pyknosis with degeneration
same,histopathology of hippocampus subiculum,[7],nuclear pyknosis and degeneration in some neurons
same,histopathology of striatum,[7],multiple focal eosinophilic plagues formation
same,elevation of CYP2E1 brain content,[8],235%
same,increase of IL-1β in the brain,[9],193%
same,decrease of Y-maze alteration,[10],58%
